Laboratory results taken from publication PMC10140010 (Investigational New Drugs, 2023).
Several values for one entry are separate records, joined by “and”; a condition that tells them apart may be missing. Identical values can stand only once.

How the values were obtained:
P-gp = target: T1, P-gp (Homo sapiens, UniProt P08183); assay: ABC efflux transporter inhibitor test on Caco-2 cells (digoxin efflux); type: in vitro ADME
T1 construct: endogenous in cells; host or cells: Caco-2

MATE1 = target: T2, MATE1 (Homo sapiens, UniProt Q96FL8); assay: in vitro
T2 sequence (Q96FL8 1-570): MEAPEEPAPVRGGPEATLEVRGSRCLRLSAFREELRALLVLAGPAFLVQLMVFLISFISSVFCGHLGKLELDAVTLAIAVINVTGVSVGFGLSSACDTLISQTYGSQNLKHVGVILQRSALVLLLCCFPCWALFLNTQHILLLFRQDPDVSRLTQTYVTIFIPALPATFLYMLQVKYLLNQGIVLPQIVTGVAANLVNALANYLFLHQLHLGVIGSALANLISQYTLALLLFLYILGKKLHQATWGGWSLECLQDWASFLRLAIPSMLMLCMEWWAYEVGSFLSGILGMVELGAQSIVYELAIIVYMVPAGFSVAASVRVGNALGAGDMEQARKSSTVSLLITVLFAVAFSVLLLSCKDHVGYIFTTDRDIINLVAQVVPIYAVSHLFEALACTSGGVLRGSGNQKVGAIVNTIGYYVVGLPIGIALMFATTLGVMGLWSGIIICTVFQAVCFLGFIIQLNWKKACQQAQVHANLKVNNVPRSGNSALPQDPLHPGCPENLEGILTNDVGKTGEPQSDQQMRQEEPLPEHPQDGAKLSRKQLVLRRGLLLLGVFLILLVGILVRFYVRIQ
Description: Using a stably transfected cell line of HEK293 expressing transporter OATP1B1, OATP1B3 or OCT2, formal substrate investigation tests were performed for three concentration gradients (30 µM, 3 µM, 0.3 µM) of iruplinalkib.

OCT2 = target: T3, OCT2 (Homo sapiens, UniProt O15244); assay: Uptake inhibitor investigation in HEK293 cells expressing transporter; type: in vitro ADME; conditions: metformin as the substrate
T3 construct: No ESH9G27; host or cells: HEK293
T3 sequence (O15244 1-555): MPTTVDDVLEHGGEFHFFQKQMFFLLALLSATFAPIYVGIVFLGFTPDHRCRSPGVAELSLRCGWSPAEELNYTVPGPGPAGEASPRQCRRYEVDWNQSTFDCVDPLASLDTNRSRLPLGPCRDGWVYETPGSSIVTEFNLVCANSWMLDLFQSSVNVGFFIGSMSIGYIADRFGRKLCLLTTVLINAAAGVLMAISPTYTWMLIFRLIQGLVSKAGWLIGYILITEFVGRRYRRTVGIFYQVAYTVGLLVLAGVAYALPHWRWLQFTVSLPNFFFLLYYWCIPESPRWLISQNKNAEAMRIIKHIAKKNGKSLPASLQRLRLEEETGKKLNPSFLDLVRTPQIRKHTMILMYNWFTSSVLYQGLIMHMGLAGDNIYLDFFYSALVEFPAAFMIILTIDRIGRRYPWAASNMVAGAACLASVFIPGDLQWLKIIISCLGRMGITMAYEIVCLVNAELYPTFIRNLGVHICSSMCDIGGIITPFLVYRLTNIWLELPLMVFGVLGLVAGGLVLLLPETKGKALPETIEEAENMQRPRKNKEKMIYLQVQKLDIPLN

[1] = Recovery in dialysis device and stability in plasma during dialysis; type: in vitro ADME; conditions: 0.2, 2 and 10 µM, all species
Description: At three test concentrations (0.2, 2 and 10 µM), the plasma protein binding rate of iruplinalkib is as follows (Fig. 3a). […] With the increase of concentration, the protein binding rates of iruplinalkib in rat plasma decreased gradually, showing a certain concentration dependence, and there was no concentration dependence of protein binding rate observed in other species plasma.

OAT3 = assay: Uptake substrate investigation in HEK293 cells expressing transporter
Description: (§1) The engineered NIH-3T3 (CD74-ROS1 fusion gene) cells was obtained from Nanjing GenScript Biotechnology Co., Ltd. The engineered Ba/F3 (SLC34A2-ROS1 fusion gene) cell line was obtained from Kyinno Biotechnology (Beijing) Co., Ltd. The HCC-78 (SLC34A2-ROS1 fusion gene) cell line was purchased from Shanghai Hongshun Biotechnology Co., Ltd. The engineered NIH-3T3 (CD74-ROS1 fusion gene) cells was obtained from Nanjing GenScript Biotechnology Co., Ltd. The engineered HEK293 cell lines with OATP1B1 (Lot. No ESH6G27), OATP1B3 (Lot. No ESH7G27), OCT2 (Lot. No ESH9G27), OAT1 (Lot. No ESHCG27), OAT3 (Lot. […] No ESHDG27) were purchased from GenoMembrane and validated using the specific substrate for each transporter. All cells were cultured at 37℃ in a 5% CO2 atmosphere. Cell culture reagents were obtained from Life Technologies, Inc. See Supplemental Table 1 for details on the source of the cell lines and the media used.

OATP1B3 = assay: Uptake inhibitor investigation in HEK293 cells expressing transporter; type: in vitro ADME
CYP3A4 = assay: Hepatic enzyme induction in human hepatocytes (gene expression); type: in vitro ADME
Description: Human hepatocytes derived from three donors were used for evaluating for hepatic enzyme inducing activity. […] The gene expression related to cytochrome P450 isoenzyme CYP3A4 in hepatocytes of one of the three donors increased with iruplinalkib 1 µM.

OAT1 [2] = assay: Uptake inhibitor investigation in HEK293 cells expressing transporter; type: in vitro ADME
OAT1 [3] = assay: Uptake substrate investigation in HEK293 cells expressing transporter
Description: as §1

[4] = human, Caco-2 cells, probe digoxin (5 µM), read-out: Exhaust inhibition rate (%)
[5] = MOCK293, test substrate 10 μM, no inhibitor, OAT3 pre-test
[6] = OATP1B1-293 (so in the source), test substrate 10 μM, no inhibitor, OAT3 pre-test
[7] = transporter cells vs MOCK293, test substrate 10 μM, no inhibitor, OAT3 pre-test
[8] = human, HEK293 cells expressing OATP1B3, probe ATV (atorvastatin), 1 μM, read-out: Inhibition rate
[9] = human, HEK293 cells expressing OAT1, probe ATV, 1 μM, read-out: Inhibition rate
[10] = MOCK293, test substrate 10 μM, no inhibitor, OAT1 pre-test
[11] = OATP1B1-293 (so in the source), test substrate 10 μM, no inhibitor, OAT1 pre-test
[12] = transporter cells vs MOCK293, test substrate 10 μM, no inhibitor, OAT1 pre-test

T1 sequence (P08183 whole entry): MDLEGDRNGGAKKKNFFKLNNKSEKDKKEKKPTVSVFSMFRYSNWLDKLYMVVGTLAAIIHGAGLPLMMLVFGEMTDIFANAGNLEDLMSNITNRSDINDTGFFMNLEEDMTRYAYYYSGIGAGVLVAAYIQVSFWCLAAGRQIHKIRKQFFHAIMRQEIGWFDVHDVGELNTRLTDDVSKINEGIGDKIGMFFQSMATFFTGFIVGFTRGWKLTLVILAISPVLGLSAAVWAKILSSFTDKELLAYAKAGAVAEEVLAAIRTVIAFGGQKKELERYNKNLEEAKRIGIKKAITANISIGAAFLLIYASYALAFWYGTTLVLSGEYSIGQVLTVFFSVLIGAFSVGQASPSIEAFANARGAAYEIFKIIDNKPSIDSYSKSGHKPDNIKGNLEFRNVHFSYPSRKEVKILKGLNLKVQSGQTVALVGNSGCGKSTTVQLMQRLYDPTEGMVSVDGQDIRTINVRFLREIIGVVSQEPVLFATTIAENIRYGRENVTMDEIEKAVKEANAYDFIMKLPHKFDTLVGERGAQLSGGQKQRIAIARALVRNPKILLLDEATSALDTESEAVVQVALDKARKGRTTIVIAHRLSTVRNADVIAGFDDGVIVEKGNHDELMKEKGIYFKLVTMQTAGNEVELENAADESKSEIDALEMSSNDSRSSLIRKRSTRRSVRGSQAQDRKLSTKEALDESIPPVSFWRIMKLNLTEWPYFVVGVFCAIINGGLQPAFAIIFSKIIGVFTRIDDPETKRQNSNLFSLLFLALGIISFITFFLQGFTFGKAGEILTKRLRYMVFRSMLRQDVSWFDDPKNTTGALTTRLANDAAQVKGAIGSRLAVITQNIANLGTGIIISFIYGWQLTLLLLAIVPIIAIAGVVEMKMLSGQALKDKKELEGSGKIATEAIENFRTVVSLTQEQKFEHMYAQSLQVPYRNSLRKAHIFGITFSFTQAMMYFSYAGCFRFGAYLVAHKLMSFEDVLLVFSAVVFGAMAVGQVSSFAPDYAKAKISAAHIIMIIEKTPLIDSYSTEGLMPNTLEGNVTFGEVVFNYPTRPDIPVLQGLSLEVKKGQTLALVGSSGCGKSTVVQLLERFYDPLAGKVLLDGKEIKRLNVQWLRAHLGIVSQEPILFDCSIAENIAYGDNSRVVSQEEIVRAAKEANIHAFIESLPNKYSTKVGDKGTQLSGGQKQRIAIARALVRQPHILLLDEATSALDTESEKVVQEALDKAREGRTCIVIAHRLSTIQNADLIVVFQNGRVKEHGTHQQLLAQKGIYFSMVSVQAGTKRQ

## COc1cc(N2CCC3(CCN(C)CC3)CC2)ccc1Nc1ncc(Cl)c(Nc2ccccc2P(C)(C)=O)n1 [Iruplinalkib]
P-gp; Caco-2
  P-gp inhibitor: strong inhibitor
P-gp; [4]
  inhibition at 0.1 μM: -30.9%
  inhibition at 0.3 μM: 3.97%
  inhibition at 1 μM: -13.2%
  inhibition at 3 μM: -19.1%
  inhibition at 10 µM: 89.8%
  inhibition at 30 μM: 98.7%
MATE1
  inhibition at 0.5 μM: 46.4%
  inhibition at 5 μM: 94.5%
  inhibition at 50 μM: 112%
OCT2
  inhibition of OCT2 uptake: only a weak inhibitory effect
[1]
  remaining rates in plasma after incubation for 5 h: 95–109.3%
[1]; CD-1 (mouse), SD (rat), Beagle (dog), plasma, read-out: recovery rates in the dialysis device
  recovery: 81.8 to 99.9%
OAT3; HEK293
  uptake substrate of OAT3: not an uptake substrate
OAT3; [5]
  Uptake transport activity, Mean: 344.0 pmol/mg protein/min
  Uptake transport activity, Repeat 1 / Repeat 2: 309.8 pmol/mg protein/min and 378.3 pmol/mg protein/min
OAT3; [6]
  Uptake transport activity, Mean: 88.57 pmol/mg protein/min
  Uptake transport activity, Repeat 1 / Repeat 2: 81.45 pmol/mg protein/min and 95.69 pmol/mg protein/min
OAT3; [7]
  Ratio of uptake transit activity: 0.92
  Uptake transport activity, Net value: -255.5 pmol/mg protein/min
OATP1B3; HEK293
  inhibition of OATP1B3 uptake activity: can inhibit the uptake activity
OATP1B3; [8]
  inhibition at 0.5 μM: 7.2%
  inhibition at 5 μM: 15.3%
  inhibition at 50 μM: 41.1%
CYP3A4; 10 µM, human hepatocytes from three donors
  inducer of CYP3A4: not an inducer
CYP3A4; donor 1, 0.1 µM
  induction multiples of CYP3A4 gene expression: 0.621 fold
CYP3A4; donor 1, 1 µM
  induction multiples of CYP3A4 gene expression: 2.99 fold
CYP3A4; donor 1, 10 µM
  induction multiples of CYP3A4 gene expression: 2.38 fold
CYP3A4; donor 2, 0.1 µM
  induction multiples of CYP3A4 gene expression: 0.879 fold
CYP3A4; donor 2, 1 µM
  induction multiples of CYP3A4 gene expression: 1.80 fold
CYP3A4; donor 2, 10 µM
  induction multiples of CYP3A4 gene expression: 2.81 fold
CYP3A4; donor 3, 0.1 µM
  induction multiples of CYP3A4 gene expression: 0.964 fold
CYP3A4; donor 3, 1 µM
  induction multiples of CYP3A4 gene expression: 9.36 fold
CYP3A4; donor 3, 10 µM
  induction multiples of CYP3A4 gene expression: 1.86 fold
OAT1 [2]; HEK293
  inhibitor of OAT1: can not be its inhibitor
OAT1 [2]; [9]
  inhibition at 0.5 μM: 26.7%
  inhibition at 5 μM: 22.5%
  inhibition at 50 μM: 31.9%
OAT1 [3]; HEK293
  uptake substrate of OAT1: not an uptake substrate
OAT1 [3]; [10]
  Uptake transport activity, Mean: 313.6 pmol/mg protein/min
  Uptake transport activity, Repeat 1 / Repeat 2: 302.7 pmol/mg protein/min and 324.5 pmol/mg protein/min
OAT1 [3]; [11]
  Uptake transport activity, Mean: 289.1 pmol/mg protein/min
  Uptake transport activity, Repeat 1 / Repeat 2: 285.7 pmol/mg protein/min and 292.5 pmol/mg protein/min
OAT1 [3]; [12]
  Ratio of uptake transit activity: 0.92
  Uptake transport activity, Net value: -24.51 pmol/mg protein/min
